The series can be described thus: Saturation concentration (solubility) of salicylic acid in vehicle A (water). In kind it is physicochemical.

This is an account of results in US20130156832A1, “EUDERMIC COMPOSITIONS” (Miso S.r.I., priority 2010, published 2013).

For `O=C(O)c1ccccc1O` [salicylic acid], the “saturation concentration (Cs, SA-A)” value is 2 mg/mL.
